From patent publication US9034825B2, “Treatment of myocardial injury with humanin analogs” (Albert Einstein College of Medicine of Yeshiva University, priority 2007, dated 2015)
“Also recorded” adds a separate entry of the source.

Test system: Sprague-Dawley rats
Assay: ICV infusion of IGF-1, IGFBP-3 or NLS mutant with basal and hyperinsulinemic clamp
Format: in vivo, rat
Excerpt: Young (3 mo old, n=6 in each group), male Sprague-Dawley rats (Charles River Laboratories, Wilmington, Mass.) were used for this study. Rats were housed in individual cages and were subjected to a standard light (6:00 AM to 6:00 PM)—dark (6:00 PM to 6:00 AM) cycle. All rats were fed ad libitum using regular rat chow that consisted of 64% carbohydrate, 30% protein, and 6% fat with a physiological fuel value of 3.3-kcal/g chow. In the rats that received ICV infusions, 2 to 4 weeks before the in vivo study, the rats were anesthetized by inhalation of isoflurane and a cannula was placed ICV in the third ventricle for infusions of IGF-1, IGFBP-3 or IGFBP-3 mutant or artificial cerebrospinal fluid (aCSF), as previously described (Muzumdar et al., 2003) (FIG. 1). Briefly, a 26-gauge stainless steel guide cannula (Plastics One, Roanoke, Va.) was chronically implanted into the third ventricles using the following coordinates from bregma: anterior-posterior; +0.2 mm dorsal-ventral; −9.0 mm medial-lateral; 0.0 directly on the mid-sagittal suture, followed by a 28-gauge dummy cannula, inserted to prevent clogging of the guide cannula. The implant was secured to the skull with Caulk Grip dental cement, and the skin was closed over the implant using wound clips. The recovery of rats from the surgical stress was monitored with daily weight, food intake, and movement.
Upon recovery of body weight, usually a week, indwelling catheters were placed in the right internal jugular vein and in the left carotid artery (Muzumdar et al., 2003). The venous catheter was extended to the level of the right atrium, and the arterial catheter was advanced to the level of the aortic arch. Recovery was continued until body weight was within 3% of the pre-operative weight (˜4-6 days). In the rats that received peripheral IGFBP-3, only the vascular catheters were placed.
Studies were performed in unrestrained rats using the insulin clamp technique, in combination with high performance liquid chromatography-purified [3-^3H]glucose and [U-^14C]lactate infusions, as described previously (Liu et al., 1998). Food was removed for ˜5 h before the in vivo protocol. All studies lasted 360 min and included a 120-min equilibration period, a 120-min basal period for assessment of the basal glucose turnover, and a 120-min hyperinsulinemic clamp period. All rats received ICV infusions (bolus followed by continuous ICV infusions of IGF-1, IGFBP-3, IGFBP-3 mutant or aCSF, depending on the group) over the entire 6 hours of the study. At the beginning of the basal period and 120 min before starting the glucose/insulin infusions, a primed-continuous infusion of high performance liquid chromatography-purified [3-^3H]glucose (NEN Life Science Products, Boston, Mass.; 20 μCi of bolus, 0.2 μCi/min) was initiated and maintained throughout the remaining 4 h of the study. In the final 2 hours of the study, the rats were subjected to hyperinsulinemic clamp. The protocol followed during the insulin clamp study was similar to that previously described (Liu et al., 1998). Briefly, a primed-continuous infusion of regular insulin (3 milliunits/kg·min) was administered, and a variable infusion of a 25% glucose solution was started and periodically adjusted to clamp the plasma glucose concentration at 7-8 mM. To prevent endogenous insulin secretion and in order to control for possible effects of ICV infusions on the endocrine pancreas, somatostatin (1.5 μg/kg·min) was also infused in all the groups. [U-^14C]Lactate (5 μCi of bolus/0.25 μCi/min) was infused during the last 10 min of the study.
A bolus of hIGF-1 (0.3 mcg, a gift from Tercica, South San Francisco) was followed by a continuous infusion over 6 hours (total dose of 1 mcg, 0.06 μg/kg/hr).
A bolus of non glycosylated hIGFBP-3 (1.25 μg, generously provided by Celtrix, Mountain View Calif.) was followed by a continuous infusion over 6 hours (total dose of 5.25 mcg, 0.26 μg/kg/hr). […]

[1] = ICV IGFBP-3, insulin clamp 3 mU/kg/min
[2] = ICV IGFBP-3 or NLS mutant over 6 h, basal period
[3] = ICV IGFBP-3 or NLS mutant over 6 h, hyperinsulinemic clamp
[4] = ICV infusion, hyperinsulinemic clamp

IGFBP-3: non glycosylated hIGFBP-3 (IGF binding protein-3), provided by Celtrix
decrease in peripheral glucose uptake [1]: ~30%
increase in hepatic glucose production compared to controls [1]: 45%
Glycogen synthesis, Basal [2]: 4.62 ± 0.69
Glycolysis, Basal [2]: 9.33 ± 1.27 mg/kg/min
HGP, Basal [2]: 13.95 ± 0.99 mg/kg/min
Glycogen synthesis, Clamp [3]: 4.46 ± 0.68
Glycolysis, Clamp [3]: 9.95 ± 1.05 mg/kg/min
HGP, Clamp [3]: 7.08 ± 0.59 mg/kg/min
Rd, Clamp [3]: 14.01 ± 0.82 mg/kg/min
GIR, Clamp (ICV IGFBP-3 or NLS mutant over 6 h, hyperinsulinemic clamp 3 mU/kg/min): 6.95 ± 1.11 mg/kg/min
FFA (ICV IGFBP-3 or NLS mutant over 6 h, hyperinsulinemic clamp, last 60 min): 0.72 ± 0.06 mEq/l
h-IGFBP-3 (ICV IGFBP-3 or NLS mutant over 6 h, peripheral plasma): 0 ng/mL
gluconeogenesis [4]: 0.37 ± 0.1 mg/kg/min
glycogenolysis / hepatic glucose fluxes compared to controls [4]: significant increase
insulin induced suppression of FFA compared to controls [4]: significantly reduced
whole body glucose disposal / peripheral glucose uptake (Rd) compared to controls (ICV infusion, hyperinsulinemic clamp, final 60 min): significantly decreased
infused human peptide in the rat periphery (after ICV infusion): No hIGFBP-3 was detected; also recorded: No human IGF-1, hIGFBP-3 or NLS-IGFBP-3 was identified
